Test results reported in BigSolDB 2.1.

Conditions: in formic acid

For `OC1OC[C@@H](O)[C@H](O)[C@H]1O` (some centres undefined), the solubility (mole fraction) (300.45 K) was 0.13, the solubility (mole fraction) (301.85 K) was 0.139 and the solubility (mole fraction) (303.25 K) was 0.146. It also gave a solubility (mole fraction) (305.15 K) of 0.154, a solubility (mole fraction) (306.75 K) of 0.161 and a solubility (mole fraction) (308.15 K) of 0.168. For the same compound, the solubility (mole fraction) (309.95 K) was 0.175, the solubility (mole fraction) (311.65 K) was 0.182 and the solubility (mole fraction) (313.45 K) was 0.191. It also gave a solubility (mole fraction) (315.75 K) of 0.2, a solubility (mole fraction) (317.45 K) of 0.208 and a solubility (mole fraction) (320.35 K) of 0.223. It also gave a solubility (mole fraction) (323.15 K) of 0.237 and a solubility (mole fraction) (324.85 K) of 0.244.
